Literature values as cited in patent US20240001339A1, “DRYING PROCESSES FOR BIO-COMPATIBLE SPME COATINGS” (SIGMS-ALDRICH CO. LLC, priority 2020, published 2024).

What was measured:
[1] = for conventional SPME devices

- reference protein binding [1]: 70-80%
- Log p: 2.45
- pKa: 13.9
SMILES: NC(=O)N1c2ccccc2C=Cc2ccccc21 [Carbamazepine]
